For data set [1], the system named is foot tapping in gerbils induced by central injection of an NK-1 agonist. Description: Gerbil foot-tapping assay. Type of data set: in vivo. The settings on record: i.v. The source says: CNS-penetrant NK-1 receptor antagonists for use in the present invention can be identified by their ability to inhibit foot tapping in gerbils induced by anxiogenic agents (such as pentagastrin) or central infusion of NK-1 receptor agonists such as GR73632, or caused by aversive stimulation such as foot shock or single housing, based on the method of Rupniak & Williams, Eur. J. Pharmacol., 1994, 265, 179.
Male or female Mongolian gerbils (35-90 g) are anaesthetised by inhalation of an isoflurane/oxygen mixture to permit exposure of the jugular vein in order to permit administration of test compounds or vehicle in an injection volume of 5 ml/kg i.v. Alternatively, test compounds may be administered orally or by subcutaneous or intraperitoneal routes. A skin incision is then made in the midline of the scalp to expose the skull. […] The duration and/or intensity of hind foot tapping is then recorded continuously for approximately 5 minutes. Alternatively, the ability of test compounds to inhibit foot tapping evoked by aversive stimulation, such as foot shock or single housing, may be studied using a similar method of quantification.

For data set [2], the system named is cisplatin-induced emesis in ferrets. Description: Ferret emesis assay. It is filed as in vivo. The settings on record: p.o. On the procedure: Individually housed male ferrets (1.0-2.5 kg) are dosed orally by gavage with test compound. Ten minutes later they are fed with approximately 100 g of tinned cat food. At 60 minutes following oral dosing, cisplatin (10 mg/kg) is given i.v. via a jugular vein catheter inserted under a brief period of halothane anaesthesia. The catheter is then removed, the jugular vein ligated and the skin incision closed. The ferrets recover rapidly from the anaesthetic and are mobile within 10-20 minutes. The animals are observed continuously during recovery from the anaesthetic and for 4 hours following the cisplatin injection, after which time the animals are killed humanely. The numbers of retches and vomits occurring during the 4 hours after cisplatin administration are recorded by trained observers.

The subject of data set [3] is distress vocalisations in guinea-pig pups. Description: Separation-induced vocalisation assay. It is filed as in vivo. The settings on record: p.o. On the procedure: Male and female guinea-pigs pups are housed in family groups with their mothers and littermates throughout the study. Experiments are commenced […] when the pups are 2 weeks old. Before entering an experiment, the pups are screened to ensure that a vigorous vocalisation response is reproducibly elicited following maternal separation. The pups are placed individually in an observation cage (55 cm×39 cm×19 cm) in a room physically isolated from the home cage for 15 minutes and the duration of vocalisation during this baseline period is recorded. Only animals which vocalise for longer than 5 minutes are employed for drug challenge studies (approximately 50% of available pups may fail to reach this criterion). On test days each pup receives an oral dose or an s.c. or i.p. injection of test compound or vehicle and is then immediately returned to the home cage with its mother and siblings for 30 to 60 minutes (or for up to 4 hours following an oral dose, dependent upon the oral pharmacokinetics of the test compound) before social isolation for 15 minutes as described above. The duration of vocalisation on drug treatment days is expressed as a percentage of the pre-treatment baseline value for each animal. The same subjects are retested once weekly for up to 6 weeks. Between 6 and 8 animals receive each test compound at each dose tested.

The subject of another data set is ferrets. Description: MC4R associated emesis in ferrets, Compound A and Compound B (Table 1). It is filed as in vivo, ferret. The settings on record: Compound B 10 mg/kg PO; for % Emesis: ferrets; for # of Ferrets: ferrets with emesis/dosed. On the procedure: (§1) Food intake (FI) was monitored at 1, 2, 4, and 24, hours after dosing. Body weight (BWT) was measured at the time of dosing and at 24 hours. Any incidence of emesis or abnormal behavior by subjects was recorded. Two studies were combined to generate the data.

Data set [4] is described as follows: Food intake in ad lib fed ferrets, Compound A and Compound B (FIG. 1). It is filed as in vivo, ferret. The settings on record: oral, Compound B 10 mg/kg, Compound A 60 mg/kg or the combination, 1, 2, 4 and 24 hours after dosing. As to the method:
FIG. 1. […] All food intake data were analyzed by two-tailed T-TEST.
as §1

A value given as a limit tells only on which side of the number the result lay.

Consider `C[C@@H](O[C@H]1OCCN(Cc2nc(=O)[nH][nH]2)[C@H]1c1ccc(F)cc1)c1cc(C(F)(F)F)cc(C(F)(F)F)c1` [2-(R)-(1-(R)-(3,5-bis(trifluoromethyl)phenyl)ethoxy)-3-(S)-(4-fluorophenyl)-4-(3-(5-oxo-1H,4H-1,2,4-triazolo)methyl)morpholine], for which the “gerbil foot-tapping (5 mins.) ID50” value in data set [1] (5 mins.) came out at 0.36 mg/kg. In data set [1] (24 hrs.), the “gerbil foot-tapping (24 hrs.) ID50” value was 0.33 mg/kg. Moreover, in data set [2], the “ferret emesis ID90” value was less than 3 mg/kg. Besides, the “guinea-pig vocalisation (4 hr. pre-treatment) ID50” value in data set [3] turned out to be 0.73 mg/kg.

In the case of `C[C@@H](O[C@H]1OCCN(Cc2nn[nH]c2CN(C)C)[C@H]1c1ccc(F)cc1)c1cc(C(F)(F)F)cc(C(F)(F)F)c1` [Compound B, 2-(R)-(1-(R)-(3,5-bis(trifluoromethyl)phenyl)ethoxy)-4-(5-(dimethylamino)methyl-1,2,3-triazol-4-yl)methyl-3-(S)-(4-fluorophenyl)morpholine], the “% Emesis” value with ferrets (1 hour), in the data set with ferrets (2 hours), with ferrets (4 hours) and in the data set with ferrets (Total) was 0% in each case. The “# of Ferrets” value with ferrets (1 hour), with ferrets (2 hours), with ferrets (4 hours) and with ferrets (Total) was 0/9 throughout. For the same compound, in data set [4], the Food intake result is reported as “significantly reduced in the NK1 dose group at 24 hours only”.

Source of the values: patent US20080200376A1, “Compositions and Methods For the Treatment Of Obesity and Sexual Dysfunction” (priority 2004, published 2008).
